Data: US20090104124A1, “Paramagnetic Complexes with Pendant Crown Compounds Showing Improved Targeting- Specificity as MRI Contrast Agents” (priority 2007, published 2009)

Assays:
[1] = Luminescence lifetime measurements of Tb complexes for hydration number q; type: physicochemical; settings: for kH2O, absolute emission depopulation rate constant in H2O: pH 6.9 (0.1 M Tris/HCl), 298 K, ±10%; for inner-sphere coordinated (bound) water molecules, luminescent measurements: pH 6.9
Description: As previously mentioned, inner-sphere proton relaxivity is linearly proportional to the number of water molecules q that are directly coordinated to the Gd^3+ center. However, there is a trade-off between the q value and toxicity. […] It is noteworthy that there is no direct method of measuring the hydration number. The two commonly used indirect methods are as follows: (1) Lanthanide-induced shift (LIS) methods (see, Alpoim et al., J. Chem. Soc., Dalton Trans., 1992, 463). For paramagnetic Ln^3+ ions, the plot of the observed ^17O shift in Ln^3+ chelate solution versus the complex concentration gives a straight line, with the slope being proportional to its hydration number. (2) The lanthanide luminescence method. According to the Horrocks equation, the q value can be calculated by the emission rate constants for the depopulation of Tb^3+ or Eu^3+ complexes measured in H2O and D2O (see, Beeby at al., J. Chem. Soc., Perkin Trans. 2, 1999, 493). With this method, the q values of the Gd^3+ complexes in aqueous solution can be measured indirectly by their corresponding Tb^3+ or Eu^3+ complexes, because of the very similar coordination behavior between these three lanthanide ions.
Luminescence lifetime measurements were all obtained on a Perkin-Elmer LS 50B spectrofluorimeter with a 420 nm cut-off filter. The concentration of the complex was 1×10^−5˜1×10^−4 mol dm^−3. The emission of Tb^3+ or EU^3+ complexes was monitored at […]. Gd^3+ is a neighbor of Eu^3+ and Tb^3+ with a nearly identical ionic radius, and thus their chemistries are virtually identical. Therefore, the Horrocks equation for determining the number of coordinated water molecules q for Eu^3+ and Tb^3+ is still valid for the calculation of the q value of Gd^3+. In general, the number of coordinated water molecules q can be determined by the measurement of the luminescent lifetime of the complexes separately in H2O and D2O by application of the Horrocks equation.
qcorr=A(kH2O−kD2O−a)
where k is the constant for depopulation (reciprocal of luminescent lifetime), and A is a proportionality constant that signifies the sensitivity of the lanthanide ion to vibronic quenching by OH oscillators. a is correlation value for the consideration of the outer-sphere water molecules.

[2] = 1H NMRD profiles (water proton relaxivity); type: physicochemical; settings: for D: 25° C., pH 6.9, fits of NMRD profile and 17O NMR
Description: (§1) Measuring the relaxation rates of an abundant nuclear species as a function of the magnetic field over a wide range is called relaxometry. A relaxometry profile is a plot of the nuclear magnetic relaxation rate, usually 1/T1, as a function of the Larmor frequency or the magnetic field. This profile is also called a Nuclear Magnetic Resonance Dispersion (NMRD) profile. Compared with the NMRD profile, the prominent advantage of the ^17O NMR technique is that it allows the accurate determination of the water exchange rate 1/τM. This is a consequence of the oxygen nucleus being closer to the paramagnetic centre when bound in the inner-sphere, wherein the outer-sphere contributions to the relaxation rates are negligibly small. With the help of NMRD profiles, ^17O NMR measurements, and the Soloman-Bloemnergen-Morgan theory, several important parameters, such as τM, τR, τv, Δ^2 and τH, can be measured.
Water proton nuclear magnetic resonance dispersion NMRD profile is used to record the longitudinal water proton relaxation rates as a function of magnetic fields. The method is, in principle, sensitive to all of the parameters that influence relaxivity. […] The relaxometer worked under complete control with an absolute uncertainty in 1/T1 of ±2%. The NMRD profiles were measured using 1-2 mM solutions of the complexes.

MIHA cells [3] = test: In vitro cytotoxicity, cell proliferation assay (MTT / XTT-based); settings: 1×10^−2 M, 24 h incubation
Experimental: To further investigate the potential ability of GdL1 as an NMRI contrast agent, its cytotoxicity was measured by MTT assay. The toxicity of GdL1 was determined from the dose-dependence of surviving cells after exposure to this Gd^3+ complex at different time intervals. For comparison, the cytotoxicities of Gd-DOTA and Gd-DO3A were measured under the same conditions.
To evaluate the toxicity of prepared Gd^3+ complexes, a colorimetric assay (XTT-based) for the non-radioactive quantification of cell proliferation was applied. In the cell proliferating process, the added tetrazolium salt XTT was cleaved to a formazan dye by metabolically active cells, and the quantification of cell growth was achieved by the variation of the absorbance at 492 nm. Seed MIHA Cells at a concentration of 5×10^3 cells/well (tissue culture grade, 96 wells, flat bottom) were added to Gd^3+ complexes (0.625-10 mM) in a humidified atmosphere (37° C., 6.5% CO2). Different concentrations of drugs were adjusted by performing serial dilution. The incubation period of the cell culture ranged from 1, 2, 8, and 24 hrs. XTT dye at a concentration of 5 mg/mL (sigma, St. Louis, Mo.) was added, and the plates were incubated for 12 h in a moist chamber at 37° C. The optical density was determined by eluting the dye with dimethyl sulfoxide, and the absorbance was measured at 570 nm. […]

MIHA cells [4] = test: AO/EB staining, laser scanning confocal microscopy of cell morphology; type: cell-based; settings: 10 μM, up to 24 h of incubation
Experimental: MIHA cells in the absence (control) and presence of Gd-DOTA (10 μM), Gd-DO3A (10 μM), and GdL1 (10 μM) incubated at 37° C. and 5% CO2, 95% air in a humidified incubator for 1 h, 2 h, 8 h, and 24 h, respectively.
Based on cell morphology and cell membrane integrity, normal, necrotic, and apoptotic cells can be distinguished using laser confocal microscopy. FIG. 22 gives the cell morphology in the absence and presence of Gd-DOTA (10 μM), Gd-DO3A (10 μM), and GdL1 (10 μM) at various time intervals after the incubation. In the absence or presence of the Gd^3+ complexes, the nuclei of the living cells were stained as bright blue spots in the nucleus.

[5] = Variable-temperature 17O NMR transverse relaxation (water exchange); type: physicochemical; settings: for TM (derived from VT 17O NMR spectroscopy): 25° C., pH 6.9; for exchange lifetime τM of the inner-sphere coordinated water molecules: 298 K (25° C.), 2.12 T
Description: as §1
The variable-temperature ^17O NMR measurements were recorded on a JEOL EX-90 (2.1 T) spectrometer that was equipped with a 5 mm probe, by using a D2O external lock. The experimental settings were: spectral width of 10000 Hz, pulse width of 7 μs, acquisition time of 10 ms, 1000 scans, and no sample spinning. Solutions containing 2.6% of ^17O isotope were used. The observed transverse relaxation rates (R2obs^0) were calculated from the signal width at half height.

kidney cortex = test: In vivo MRI, renal intensity enhancement (T1-weighted); set-up: species or system male Sprague-Dawley (SD) rats; settings: rat, 0.1 mmol/kg
Experimental: (§2) To study the MRI contrast and biodistribution behavior of gadolinium complexes […] pendant crown ethers, experiments were performed using male Sprague-Dawley (SD) rats that weighted 150-180 g, and were housed at the Wuhan Institute of Physical and Mathematics of the Chinese Academy of Sciences (Wuhan, Hubei Province, China). All procedures conformed to the institutional guidelines for animal welfare. The rat was injected via the femoral vein with 1 mL saline solution of GdL1 in concentrations of 0.1, 0.033, and 0.02 mM/kg, which are the standard dosage, one third and one fifth of the standard dosage used in clinic currently. MR imaging was performed on a 4.7 T Bruker BIO-SPEC-47/30 MRI scanner with a custom spiral surface coil. The animal was scanned in the prone position in the MRI experiment. […] The total duration of the dynamic scanning lasted up to 400 min after the administration, with an image every 4 min. A water tube was placed in the field of view as a phantom reference. The intensity enhancement (IE) of the region of interest (RI) at time point t is expressed by IE=100% (RI(t)-RI(0))/RI(0) where RI(t) corresponds to the normalized signal intensity as measured at time point, t and RI(0) is the normalized signal intensity precontrast.

liver parenchyma = test: In vivo MRI, hepatic intensity enhancement (T1-weighted); set-up: species or system male Sprague-Dawley (SD) rats; settings: rat
Experimental: as §2

[6] = 20 MHz, 298 K; cited from earlier work
[7] = 298 K; cited from earlier work
[8] = complex with Gd^3+; cited from earlier work

| SMILES | kH2O, absolute emission depopulation rate constant in H2O [1] | D [2] | apoptotic or necrotic cells (cell morphology, AO/EB) (MIHA cells [4]) | TM (derived from VT 17O NMR spectroscopy) [5] | exchange lifetime τM of the inner-sphere coordinated water molecules [5] | further results |
| --- | --- | --- | --- | --- | --- | --- |
| O=C([O-])CN1CCN(CC(=O)[O-])CCN(CC(=O)[O-])CCN(CC(=O)[O-])CC1.[Tb+3] [Tb-DOTA, reference compound] | 0.48 ms^−1 | – | – | – | – | – |
| O=C([O-])CN1CCN(CCN2CCOCCOCCOCCOCC2)CCN(CC(=O)[O-])CCN(CC(=O)[O-])CC1.[Gd+3] [GdL1] | – | 2.24E−5 cm^2s^−1 | no obvious apoptotic or necrotic cells were found | 55 ns | 55 ns | inner-sphere coordinated water molecules from 1H NMRD profiles [2]: two; viability of the MIHA cells (MIHA cells [3]): not affected obviously; renal IE still preserved 250 minutes after injection (kidney cortex): 40%; time after injection of maximal hepatic IE (liver parenchyma; 0.03 mmol/kg): 60 to 100 min; hepatic IE on plateau (liver parenchyma; 0.033 mmol/kg): > 60%; resident lifetime in hepatic tissue (liver parenchyma; 0.1 mmol/kg): > 4 h |
| O=C([O-])CN1CCN(CCOCC2COCCOCCOCCOCCO2)CCN(CC(=O)[O-])CCN(CC(=O)[O-])CC1.[Gd+3] (stereo not drawn) [GdL2] | – | 2.24E−5 cm^2s^−1 | – | 116 ns | 116 ns | overall relaxivity r1p ([2]; 20 MHz, pH 10.0): 4.21 mM⁻¹ s⁻¹; level of hepatic enhancement maintained for more than 4 h (liver parenchyma; 0.1 mmol/kg): > 60%; time for which hepatic intensity enhancement was maintained (liver parenchyma; 0.1 mmol/kg): more than 4 h |
| O=C([O-])CN1CCN(CC(=O)[O-])CCN(CC(=O)N2CCOCCOCCN(Cc3ccc4ccccc4n3)CCOCCOCC2)CCN(CC(=O)[O-])CC1.[Gd+3] [GdL3] | – | 2.24E−5 cm^2s^−1 | – | 246 ns | 246 ns | reorientation lifetime τR [2]: 210 ps; q from NMRD profile ([2]; pH 7.5): 1; level of hepatic enhancement maintained for more than 4 h (liver parenchyma; 0.1 mmol/kg): about 50%; time for which hepatic intensity enhancement was maintained (liver parenchyma; 0.1 mmol/kg): more than 4 h |
| O=C([O-])CN1CCN(CC(=O)[O-])CCN(CC(=O)O)CCN(CC(=O)[O-])CC1.[Gd+3] [Gd-DOTA, reference compound] | – | 2.24E−5 cm^2s^−1 | no obvious apoptotic or necrotic cells were found | 300 ns | 245 ns | relaxivity r1p (typical values) [6]: 4.74 mM⁻¹ s⁻¹; bound water molecular resident lifetime τM (typical values) [7]: about 244 ns; maximal hepatic IE (liver parenchyma; 0.02 mmol/kg (1/5 of standard dose)): no remarkable hepatic IE was detected |
| O=C([O-])CN1CCNCCN(CC(=O)[O-])CCN(CC(=O)[O-])CC1.[Tb+3] [Tb-DO3A, reference compound] | 0.88 ms^−1 | – | – | – | – | – |
| O=C([O-])CN1CCN(CCN2CCOCCOCCOCCOCC2)CCN(CC(=O)[O-])CCN(CC(=O)[O-])CC1.[Tb+3] [TbL1] | 0.72 ms^−1 | – | – | – | – | inner-sphere coordinated (bound) water molecules, luminescent measurements [1]: two |
| O=C([O-])CN(CCN(CC(=O)[O-])CC(=O)O)CCN(CC(=O)[O-])CC(=O)O.[Gd+3] [Gd-DTPA] | – | 2.24E−5 cm^2s^−1 | – | 250 ns | – | relaxivity r1p (typical values) [6]: 4.69 mM⁻¹ s⁻¹; bound water molecular resident lifetime τM (typical values) [7]: ~303 ns; log K (K = formation constant of the metal complex) [8]: 24.6 |
| O=C([O-])CN1CCNCCN(CC(=O)[O-])CCN(CC(=O)[O-])CC1.[Gd+3] [Gd-DO3A, reference compound] | – | 2.24E−5 cm^2s^−1 | no obvious apoptotic or necrotic cells were found | 160 ns | 160 ns | – |
| O=C([O-])CN1CCN(CC(=O)[O-])CCN(CC(=O)N2CCOCCOCCN(Cc3ccc4ccccc4n3)CCOCCOCC2)CCN(CC(=O)[O-])CC1.[Tb+3] [TbL3] | 0.50 ms^−1 | – | – | – | – | inner-sphere coordinated (bound) water molecules, luminescent measurements [1]: only one |
